Our source for the serum creatinine and Activity values is ChEMBL document CHEMBL1649153, “Population pharmacokinetics of high-dose, prolonged-infusion cefepime in adult critically ill patients with ventilator-associated pneumonia” (Antimicrob Agents Chemother, 2009).

One data set concerns Serum. The experiment in a line: Serum creatinine level in critically ill patient with ventilator-associated pneumoniae at […] administered as 3 hr infusion every 8 hrs by HPLC. The class given is ADME, organism-based. Conditions: human, in vivo, iv.
The subject of a further data set is Homo sapiens. The experiment in a line: Toxicity in critically ill patient with ventilator-associated pneumoniae assessed as adverse effects at […] administered as 3 hr infusion every 8 hrs by HPLC. The class given is organism-based. Conditions: in vivo, iv.

Take `CO/N=C(\C(=O)N[C@@H]1C(=O)N2C(C(=O)[O-])=C(C[N+]3(C)CCCC3)CS[C@H]12)c1csc(N)n1` [CEFEPIME]: the serum creatinine with Serum was 0.8 mg/dL. Moreover, in the data set with Homo sapiens, the Activity entry is reported as “Non-toxic”.
